Assays:
Sox2, Oct3/4, Nanog = assay: Western blot of stem cell markers after Docetaxel treatment; assay type: cell-based, human; settings: 1 nM, 2 nM, 5 nM, 10 nM docetaxel
Experimental: (§1) FIG. 12B is a graph depicting the cell viability of prostate cancer stem cells (CSC) and non-stem prostate cancer cells (Non-CSC) observed for up to 72 hours after treatment with Docetaxel. Cell viability was determined by quantifying the surviving prostate cancer stem cells (CSC) and non-stem prostate cancer cells (Non-CSC) in the samples exposed to 5 nM Docetaxel at Day 0, 1, 2 and 3.
(§2) Prostate cancer stem cells from metastatic prostate cancer cell lines were examined for their sensitivity to conventional cancer treatments (e.g., radiation and chemotherapy). […] Metastatic prostate stem cell lines were also treated with Docetaxel, a frontline treatment for drug-resistant cancer cells.
For the experiments described above, Western-blot analysis was performed by standard methods on isolated cancer stem cells and non-cancer stem cells. Whole cell lysates were prepared in lysis buffer with a commercially available protease inhibitor cocktail (Pierce) at 4° C., followed by centrifugation at 13,000×g for 10 min. Extracts were separated by SDS/PAGE and transferred to nitrocellulose membranes. The membranes were blocked with 5% nonfat dry milk in 20 mM Tris-HCl (pH 7.5), 500 mM sodium chloride, and 0.05% Tween 20 for 2 h and then incubated with commercially available primary antibodies in the same buffer with 1% BSA (fraction V). […]

[1] = system: prostate cancer stem cells (CSC) and non-stem prostate cancer cells (Non-CSC); assay: Cell viability of CSC and Non-CSC after Docetaxel; assay type: cell-based, human; settings: 5 nM Docetaxel, Day 0, 1, 2 and 3
Experimental: as §1, §2

CC(=O)O[C@@]12CO[C@@H]1C[C@H](O)[C@@]1(C)C(=O)[C@H](O)C3=C(C)[C@@H](OC(=O)[C@H](O)[C@@H](NC(=O)OC(C)(C)C)c4ccccc4)C[C@@](O)([C@@H](OC(=O)c4ccccc4)[C@H]21)C3(C)C [Docetaxel]
detection of Sox2, Oct 3/4 and Nanog expression (Sox2, Oct3/4, Nanog): increased detection of Sox2, Oct 3/4 and Nanog expression with increasing dose
cell viability of prostate cancer stem cells vs non-stem prostate cancer cells [1]: more cell viability compared to non-stem prostate cancer cells
